How the values were obtained:
[1] = Pharmacokinetic study in the rat; format: in vivo
Experimental: Assay 6: Pharmacokinetic Study in the Rat
Aqueous solution formulations of test compounds were prepared in 0.1% lactic acid at a pH of between about 5 and about 6. Male Sprague-Dawley rats (CD strain, Charles River Laboratories, Wilmington, Mass.) were dosed with test compounds via intravenous administration (IV) at a dose of 2.5 mg/kg or by oral gavage (PO) at a dose of 5 mg/kg. The dosing volume was 1 mL/kg for IV and 2 mL/kg for PO administration. Serial blood samples were collected from animals pre-dose, and at 2 (IV only), 5, 15, and 30 min, and at 1, 2, 4, 8, and 24 hours post-dose.
Standard pharmacokinetic parameters were assessed by non-compartmental analysis (Model 201 for IV and Model 200 for PO) using WinNonlin (Version 4.0.1, Pharsight, Mountain View, Calif.). The maximum in the curve of test compound concentration in blood plasma vs. time is denoted Cmax. The area under the concentration vs. time curve from the time of dosing to the last measurable concentration (AUC(0-t)) was calculated by the linear trapezoidal rule.

[2] = Dynamic moisture sorption assessment; format: physicochemical; details: 25° C.
Experimental: Dynamic Moisture Sorption Assessment
Dynamic moisture sorption (DMS) assessment was performed at 25° C. using a VTI atmospheric microbalance, SGA-100 system (VTI Corp., Hialeah, Fla. 33016). A sample size of approximately 5-10 mg was used and the humidity was set at the ambient value at the start of the analysis. A typical DMS analysis consisted of three scans: ambient to 2% relative humidity (RH), 2% RH to 90% RH, 90% RH to 5% RH at a scan rate of 5% RH/step. The mass was measured every two minutes and the RH was changed to the next value (±5% RH) when the mass of the sample was stable to within 0.02% for 5 consecutive points.

[3] = Solid state stability assessment; format: physicochemical; details: three months at 40° C. and 75% RH, open glass vials
Experimental: Solid State Stability Assessment
Samples of the crystalline compound of Form I, prepared according to the process of Example 216, were stored in multiple open glass vials at 40° C. and 75% RH. At specific intervals, the contents of a representative vial was removed and analyzed by DSC, TGA, PXRD, and by HPLC for chemical purity.

[4] = Experimental: Thermogravimetric analysis (TGA) was performed using a TA Instruments Model Q-500 module. Data were collected and analyzed using TA Instruments Thermal Advantage for Q Series™ software. A sample weighing about 2 mg was placed in an aluminum pan on a platinum cradle and scanned from ambient temperature to about 300° C. with a linear heating rate of 10° C./min. The balance and furnace chambers were purged with nitrogen during use.
[5] = male Sprague-Dawley rats, PO 5 mg/kg, blood plasma

AUC(0-t) [1, 5] [ng·h/mL]	Cmax [1, 5] [ng/mL]	bioavailability ([1]; male, Sprague-Dawley, plasma, PO 5 mg/kg vs IV 2.5 mg/kg, read-out: oral bioavailability (F(%))) [%]	weight change (moisture sorption) ([2]; 2% to 90% RH)	weight change (moisture sorption) ([2]; critical humidity range of 40% to 75% RH)	change in the DSC or TGA thermograms and PXRD pattern after storage [3]	chemical purity of the stored sample (HPLC) [3] [%]	onset of degradation (TGA) [4]	SMILES
1200	800	~75	–	–	–	–	–	COC(=O)N1CCC(CN2CCC(CNC(=O)c3cccc4[nH]c(C(C)C)nc34)CC2)CC1 [Example 1, 4-(4-{[(2-isopropyl-1H-benzoimidazole-4-carbonyl)-amino]methyl}piperidin-1-ylmethyl)piperidine-1-carboxylic acid methyl ester]
–	–	–	less than 0.25%	less than 0.1%	no detectable change	99.5	above 240 °C	COC(=O)N1CCC(CN2CCC(CNC(=O)c3cccc4[nH]c(C(C)C)nc34)CC2)CC1 [Form I, 4-(4-{[(2-isopropyl-1H-benzoimidazole-4-carbonyl)-amino]methyl}piperidin-1-ylmethyl)piperidine-1-carboxylic acid methyl ester]
